Values of other authors, collected in patent publication US20050245902A1, “Substance delivery device” (priority 2002, published 2005).

Columns and labels:
[1] = in vivo

half life [1]: 20 min
water solubility: poorly water-soluble
Structure (SMILES): CC(=O)[C@H]1CC[C@H]2[C@@H]3CCC4=CC(=O)CC[C@]4(C)[C@H]3CC[C@]12C [progesterone]
